Experimental data taken from ChEMBL document CHEMBL3885861, “Open TG-GATES”.

Species: Rattus norvegicus
Experiment: Open TG-GATES - Regimen: Daily Repeat
Type: toxicity, organism-based, Sprague-Dawley
Design: regimen Daily Repeat, gender Male, age 6 weeks
Conditions: in vivo, po, 20 mg/kg, route gavage, dose level Middle; for APTT / Bas / Eos / Fbg / Hb / Ht / Lym / MCH / MCHC / MCV / Mono / Neu / PT / Plat / RBC / Ret / WBC: tissue Blood; for KIDNEY_TOTAL: tissue Kidney; for LIVER: tissue Liver; for A/G / ALP / ALT / AST / BUN / CRE / Ca / Cl / DBIL / GLC / IP / K / LDH / Na / PL / RALB / TBIL / TC / TG / TP / gamma-GTP: tissue Plasma

CN(CCOc1ccc(CC2SC(=O)NC2=O)cc1)c1ccccn1.O=C(O)/C=C\C(=O)O (centres undefined) [ROSIGLITAZONE MALEATE]
TERMINAL_BW (72 h, time 3 day): 255.1 g
APTT (72 h, time 3 day): 16.4 s
Bas (72 h, time 3 day): 0%
Eos (72 h, time 3 day): 0.8%
Fbg (72 h, time 3 day): 231.2 mg/dL
Hb (72 h, time 3 day): 12.7 g/dL
Ht (72 h, time 3 day): 38.6%
Lym (72 h, time 3 day): 75.2%
MCH (72 h, time 3 day): 21 pg
MCHC (72 h, time 3 day): 32.8%
MCV (72 h, time 3 day): 64 fL
Mono (72 h, time 3 day): 8%
Neu (72 h, time 3 day): 16.6%
PT (72 h, time 3 day): 11.7 s
Plat (72 h, time 3 day): 136.2 x10_4/uL
RBC (72 h, time 3 day): 603.2 x10_4/ul
Ret (72 h, time 3 day): 7%
WBC (72 h, time 3 day): 83.2 x10_2/uL
KIDNEY_TOTAL (72 h, time 3 day): 0.7 g
LIVER (72 h, time 3 day): 12.7 g
A/G (72 h, time 3 day): 2.3
ALP (72 h, time 3 day): 1378.6 IU/L
ALT (72 h, time 3 day): 38.8 IU/L
AST (72 h, time 3 day): 67.8 IU/L
BUN (72 h, time 3 day): 16.4 mg/dL
CRE (72 h, time 3 day): 0.2 mg/dL
Ca (72 h, time 3 day): 11.7 mg/dL
Cl (72 h, time 3 day): 103.6 meq/L
DBIL (72 h, time 3 day): 0.012 mg/dL
GLC (72 h, time 3 day): 187.4 mg/dL
IP (72 h, time 3 day): 7.6 mg/dL
K (72 h, time 3 day): 4.3 meq/L
LDH (72 h, time 3 day): 93.4 IU/L
Na (72 h, time 3 day): 140 meq/L
PL (72 h, time 3 day): 147.4 mg/dL
RALB (72 h, time 3 day): 3.9 g/dL
TBIL (72 h, time 3 day): 0.04 mg/dL
TC (72 h, time 3 day): 80.4 mg/dL
TG (72 h, time 3 day): 79.6 mg/dL
TP (72 h, time 3 day): 5.6 g/dL
gamma-GTP (72 h, time 3 day): 0 IU/L
TERMINAL_BW ([…], time 7 day): 281.6 g
TERMINAL_BW ([…], time 14 day): 355.9 g
TERMINAL_BW ([…], time 28 day): 432 g
APTT ([…], time 7 day): 15.7 s
Bas ([…], time 7 day): 0%
Eos ([…], time 7 day): 0.8%
Fbg ([…], time 7 day): 225.6 mg/dL
Hb ([…], time 7 day): 12.6 g/dL
Ht ([…], time 7 day): 38.6%
Lym ([…], time 7 day): 76%
MCH ([…], time 7 day): 20.7 pg
MCHC ([…], time 7 day): 32.5%
MCV ([…], time 7 day): 63.5 fL
Mono ([…], time 7 day): 6%
Neu ([…], time 7 day): 17.4%
PT ([…], time 7 day): 11.9 s
Plat ([…], time 7 day): 123 x10_4/uL
RBC ([…], time 7 day): 608.4 x10_4/ul
Ret ([…], time 7 day): 6.5%
WBC ([…], time 7 day): 87.6 x10_2/uL
APTT ([…], time 14 day): 15.9 s
Bas ([…], time 14 day): 0%
Eos ([…], time 14 day): 0.8%
Fbg ([…], time 14 day): 240.4 mg/dL
Hb ([…], time 14 day): 13 g/dL
Ht ([…], time 14 day): 39.7%
Lym ([…], time 14 day): 79.8%
MCH ([…], time 14 day): 20.7 pg
MCHC ([…], time 14 day): 32.8%
MCV ([…], time 14 day): 63 fL
Mono ([…], time 14 day): 6%
Neu ([…], time 14 day): 13.6%
PT ([…], time 14 day): 11.6 s
Plat ([…], time 14 day): 110.8 x10_4/uL
RBC ([…], time 14 day): 631.8 x10_4/ul
Ret ([…], time 14 day): 3.7%
WBC ([…], time 14 day): 108.6 x10_2/uL
APTT ([…], time 28 day): 15.9 s
Bas ([…], time 28 day): 0%
Eos ([…], time 28 day): 1%
Fbg ([…], time 28 day): 252.2 mg/dL
Hb ([…], time 28 day): 13.9 g/dL
Ht ([…], time 28 day): 42.4%
Lym ([…], time 28 day): 81.8%
MCH ([…], time 28 day): 19.2 pg
MCHC ([…], time 28 day): 32.8%
MCV ([…], time 28 day): 58.6 fL
Mono ([…], time 28 day): 6%
Neu ([…], time 28 day): 11%
PT ([…], time 28 day): 11.9 s
Plat ([…], time 28 day): 110 x10_4/uL
RBC ([…], time 28 day): 725 x10_4/ul
Ret ([…], time 28 day): 2.6%
WBC ([…], time 28 day): 105 x10_2/uL
KIDNEY_TOTAL ([…], time 7 day): 0.8 g
KIDNEY_TOTAL ([…], time 14 day): 0.8 g
KIDNEY_TOTAL ([…], time 28 day): 0.8 g
LIVER ([…], time 7 day): 13.5 g
LIVER ([…], time 14 day): 16.1 g
LIVER ([…], time 28 day): 16.8 g
A/G ([…], time 7 day): 2.1
ALP ([…], time 7 day): 1428.6 IU/L
ALT ([…], time 7 day): 36.2 IU/L
AST ([…], time 7 day): 67.6 IU/L
BUN ([…], time 7 day): 18.8 mg/dL
CRE ([…], time 7 day): 0.4 mg/dL
Ca ([…], time 7 day): 11.3 mg/dL
Cl ([…], time 7 day): 104.8 meq/L
DBIL ([…], time 7 day): 0.01 mg/dL
GLC ([…], time 7 day): 171.2 mg/dL
IP ([…], time 7 day): 7.8 mg/dL
K ([…], time 7 day): 4.3 meq/L
LDH ([…], time 7 day): 92 IU/L
Na ([…], time 7 day): 141.2 meq/L
PL ([…], time 7 day): 134.8 mg/dL
RALB ([…], time 7 day): 3.8 g/dL
TBIL ([…], time 7 day): 0.032 mg/dL
TC ([…], time 7 day): 71.8 mg/dL
TG ([…], time 7 day): 55.2 mg/dL
TP ([…], time 7 day): 5.7 g/dL
gamma-GTP ([…], time 7 day): 0.4 IU/L
A/G ([…], time 14 day): 2
ALP ([…], time 14 day): 1500.8 IU/L
ALT ([…], time 14 day): 35.2 IU/L
AST ([…], time 14 day): 64.2 IU/L
BUN ([…], time 14 day): 19 mg/dL
CRE ([…], time 14 day): 0.4 mg/dL
Ca ([…], time 14 day): 11.1 mg/dL
Cl ([…], time 14 day): 106.4 meq/L
DBIL ([…], time 14 day): 0.01 mg/dL
GLC ([…], time 14 day): 188 mg/dL
IP ([…], time 14 day): 7.3 mg/dL
K ([…], time 14 day): 4.2 meq/L
LDH ([…], time 14 day): 63 IU/L
Na ([…], time 14 day): 143.8 meq/L
PL ([…], time 14 day): 134.4 mg/dL
RALB ([…], time 14 day): 3.8 g/dL
TBIL ([…], time 14 day): 0.032 mg/dL
TC ([…], time 14 day): 73.8 mg/dL
TG ([…], time 14 day): 69.4 mg/dL
TP ([…], time 14 day): 5.6 g/dL
gamma-GTP ([…], time 14 day): 1 IU/L
A/G ([…], time 28 day): 1.8
ALP ([…], time 28 day): 1013.6 IU/L
ALT ([…], time 28 day): 34 IU/L
AST ([…], time 28 day): 61.2 IU/L
BUN ([…], time 28 day): 17.8 mg/dL
CRE ([…], time 28 day): 0.4 mg/dL
Ca ([…], time 28 day): 10.6 mg/dL
Cl ([…], time 28 day): 105.8 meq/L
DBIL ([…], time 28 day): 0.01 mg/dL
GLC ([…], time 28 day): 180.4 mg/dL
IP ([…], time 28 day): 6.5 mg/dL
K ([…], time 28 day): 4.2 meq/L
LDH ([…], time 28 day): 87.2 IU/L
Na ([…], time 28 day): 140.8 meq/L
PL ([…], time 28 day): 122.8 mg/dL
RALB ([…], time 28 day): 3.7 g/dL
TBIL ([…], time 28 day): 0.032 mg/dL
TC ([…], time 28 day): 64.6 mg/dL
TG ([…], time 28 day): 65.2 mg/dL
TP ([…], time 28 day): 5.8 g/dL
gamma-GTP ([…], time 28 day): 0.4 IU/L
